# What was measured:
# [1] = biological target: T1, AR-LBD protein (Homo sapiens, UniProt P10275); test: Biolayer interferometry (BLI) direct interaction; format: binding; conditions: A-1 2.06-500 μM, biotinylated AR-LBD
# T1 construct: The biotinylated AR-LBD protein was dissolved in the buffer
# T1 sequence (P10275 669-900 limits assumed): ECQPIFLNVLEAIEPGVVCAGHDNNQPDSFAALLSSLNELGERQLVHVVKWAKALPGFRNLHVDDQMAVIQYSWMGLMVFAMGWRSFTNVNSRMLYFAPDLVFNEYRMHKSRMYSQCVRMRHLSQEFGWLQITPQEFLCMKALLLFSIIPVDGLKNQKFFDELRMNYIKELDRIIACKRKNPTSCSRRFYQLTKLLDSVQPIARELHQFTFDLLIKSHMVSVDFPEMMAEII
# Procedure: Detection principles: The BLI technique can detect the interactions by monitoring the change of the interference spectrum in the sensor surface. BLI can quantitatively determine the binding and dissociation processes of a ligand to the target loaded sensor, by analyzing changes in the interference spectrum. Therefore, the direct interaction between ligand and target protein can be quantitatively detected.
# Methods: The biotinylated AR-LBD protein was dissolved in the buffer of phosphate-buffered saline with 1% dimethyl sulfoxide. 200 μL of AR-LBD protein in the buffer was loaded onto sensors and equilibrated for 300 seconds. The kinetics of association between AR-LBD and A-1 were determined by soaking the AR-LBD loaded sensors into wells containing different concentrations of A-1 for 300 seconds, followed by soaking the sensors in the buffer for 180 seconds allow for dissociation. Finally, the ForteBio data analysis software was applied to calculate the kinetic binding constants (Ka, Kd, KD).
# [2] = biological target: T2, LBP of AR-LBD (Rattus norvegicus, UniProt P15207); test: AR competitive ligand binding assay (PolarScreen Androgen Receptor Competitor Assay Kit, fluorescence polarization); conditions: A-1 at 12.5 μM-200 μM; 4 hours incubation
# T2 construct: a buffer containing AR-LBD (His-GST) and fluorescence ligand; purchased
# T2 sequence (P15207 651-882 limits assumed): T1 sequence (P10275 669-900 limits assumed)
# Procedure: Detection principles: The binding affinities of compounds to the LBP of AR-LBD were evaluated using PolarScreen™ Androgen Receptor Competitor Assay Kit. […] The addition of a test compound to a microporous plate containing the binary complex would reduce fluorescence polarization values if the compound could target LBP of AR-LBD by competing the fluorescence ligand.
# After 4 hours incubation in darkness at room temperature, the fluorescence polarization values were determined using a multifunctional microplate reader.
smiles,measurement,setting,value
"CC(=O)Cc1nsc(NC(=O)c2cc(-c3cccc(C(F)(F)F)c3)oc2C)n1 [Compound A-1, 2-Methyl-N-(3-(2-oxopropyl)-1,2,4-thiadiazol-5-yl)-5-(3-(trifluoromethyl)phenyl)furan-3-carboxamide]",Kd,[1],143 µM
same,binding to the AR LBP,[2],did not bind to the AR LBP

# — patent US20240376091A1, “THIADIAZOLEAMIDE DERIVATIVES AND THEIR APPLICATIONS” (ZHEJIANG UNIVERSITY, priority 2021, published 2024)
